{
  "source": "patent US4385058A",
  "about": "“Pyrimidone derivatives” (Smith Kline & French Laboratories Limited, priority 1980, dated 1983)",
  "test_system": "histamine H2 -receptors",
  "test": "Inhibition of histamine-stimulated acid secretion in the Heidenhain pouch dog",
  "format": "in vivo",
  "settings": "intravenous administration; dose levels adjusted to produce similar peak responses",
  "from_the_text": "Heidenhain pouch dogs can be prepared and used as described in European Specification No. 15138.",
  "data": [
    {"compound": "Cc1ccc(Cc2cnc(NCCSCc3cc(CN(C)C)ccn3)[nH]c2=O)cn1", "note": "[Example 1, 2-[2-(4-dimethylaminomethyl-2-pyridylmethylthio)ethylamino]-5-(6-methyl-3-pyridylmethyl)-4-pyrimidone]", "values": [
      {"measurement": "duration of activity versus cimetidine", "result": "longer duration of activity than cimetidine"}
    ]}
  ]
}
